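All cell lines were grown in 96-well plates and treated with compound for 48 hours. GI50: concentration for 50% inhibition of growth.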 Activity calls are given as the source filed them. Rule as the data show it: active = GI50 up to about 1.1 µM and inactive = higher.
Columns and labels:
Assay in all cases: growth of human tumour cells (NCI), 48 h
A549 = test system: A549
SF-295 = test system: SF-295
Malme-3M = test system: Malme-3M
NCI-H226 = test system: NCI-H226
SNB-75 = test system: SNB-75
OVCAR-4 = test system: OVCAR-4
TK-10 = test system: TK-10
SW-620 = test system: SW-620
SF-268 = test system: SF-268
ACHN = test system: ACHN
HCC 2998 = test system: HCC 2998
IGROV-1 = test system: IGROV-1
HT-29 = test system: HT-29
COLO 205 = test system: COLO 205
SK-MEL-5 = test system: SK-MEL-5
OVCAR-3 = test system: OVCAR-3
SR = test system: SR

Measured: GI50

C[Si](C)(C)c1ccc(CC2(Cc3ccc([Si](C)(C)C)cc3)CCNC2)cc1
inactive: A549 2.29 µM | SF-295 2.52 µM | Malme-3M 3.95 µM | NCI-H226 1.88 µM | SNB-75 3.24 µM | OVCAR-4 2.1 µM | TK-10 21 µM | SW-620 1.86 µM | SF-268 2.22 µM | ACHN 3.18 µM | HCC 2998 2.11 µM | IGROV-1 2.58 µM | HT-29 2.04 µM | COLO 205 1.8 µM | SK-MEL-5 1.9 µM | OVCAR-3 1.97 µM

CN(C)C(=O)OC(Cn1cncn1)c1ccc(Cl)cc1Cl (configuration not stated)
inactive: A549 > 100 µM | SF-295 > 100 µM | Malme-3M > 100 µM | NCI-H226 > 100 µM | SNB-75 > 100 µM | OVCAR-4 > 100 µM | TK-10 > 100 µM | SW-620 > 100 µM | SF-268 > 100 µM | ACHN > 100 µM | HCC 2998 > 100 µM | IGROV-1 > 100 µM | HT-29 > 100 µM | COLO 205 > 100 µM | SK-MEL-5 > 100 µM | OVCAR-3 > 100 µM

CCCCCCCCCCCOC(=S)NC(C)C
inactive: A549 21.4 µM | SF-295 21 µM | Malme-3M 21.8 µM | SNB-75 23.1 µM | OVCAR-4 24.8 µM | TK-10 28.2 µM | SW-620 16.3 µM | SR 20.5 µM | SF-268 21.2 µM | ACHN 19.3 µM | HCC 2998 17 µM | IGROV-1 20.6 µM | HT-29 17.1 µM | SK-MEL-5 17 µM

CCCCCCCCCCCCCC(=S)N/C=C/OC
inactive: A549 37.4 µM | SF-295 30.2 µM | Malme-3M 26.6 µM | NCI-H226 43.8 µM | SNB-75 33.7 µM | OVCAR-4 32.1 µM | TK-10 > 100 µM | SW-620 35.5 µM | SF-268 43 µM | ACHN 27.5 µM | HCC 2998 19 µM | IGROV-1 41.3 µM | HT-29 21.3 µM | COLO 205 27.1 µM | SK-MEL-5 25 µM | OVCAR-3 23.6 µM

NC(=O)N1N=C2c3ccccc3CC[C@@H]2C1c1ccccc1 (some centres not stated)
inactive: A549 > 100 µM | SF-295 > 100 µM | Malme-3M > 100 µM | NCI-H226 > 100 µM | SNB-75 36.6 µM | TK-10 > 100 µM | SW-620 > 100 µM | SF-268 > 100 µM | ACHN > 100 µM | HCC 2998 > 100 µM | IGROV-1 > 100 µM | HT-29 > 100 µM | COLO 205 > 100 µM | SK-MEL-5 88.7 µM | OVCAR-3 > 100 µM

COc1ccc(C2Oc3ccc(O)cc3[C@@H]2C)cc1OC (some centres not stated)
inactive: A549 > 100 µM | SF-295 > 100 µM | Malme-3M > 100 µM | NCI-H226 > 100 µM | SNB-75 30.2 µM | OVCAR-4 97.7 µM | TK-10 > 100 µM | SW-620 > 100 µM | SF-268 > 100 µM | ACHN > 100 µM | HCC 2998 > 100 µM | IGROV-1 > 100 µM | HT-29 > 100 µM | COLO 205 > 100 µM | SK-MEL-5 48.5 µM | OVCAR-3 > 100 µM

CN(CC(=O)O)S(=O)(=O)c1ccc(Cl)cc1
inactive: A549 > 100 µM | SF-295 > 100 µM | Malme-3M > 100 µM | NCI-H226 > 100 µM | SNB-75 > 100 µM | OVCAR-4 > 100 µM | TK-10 > 100 µM | SW-620 > 100 µM | SF-268 > 100 µM | ACHN > 100 µM | HCC 2998 > 100 µM | IGROV-1 > 100 µM | HT-29 > 100 µM | COLO 205 > 100 µM | SK-MEL-5 > 100 µM | OVCAR-3 > 100 µM

COC1(C)CC2N(C(=O)c3ccccc3)N=C(c3ccccc3)CC2(C)O1 (configuration not stated)
inactive: A549 > 100 µM | SF-295 > 100 µM | Malme-3M > 100 µM | NCI-H226 > 100 µM | SNB-75 > 100 µM | OVCAR-4 > 100 µM | SW-620 > 100 µM | SF-268 > 100 µM | ACHN > 100 µM | HCC 2998 96.4 µM | IGROV-1 > 100 µM | HT-29 > 100 µM | SK-MEL-5 > 100 µM | OVCAR-3 > 100 µM

COc1cccc(C2=NC(C(C)C)CO2)c1 (configuration not stated)
inactive: A549 > 100 µM | SF-295 > 100 µM | Malme-3M > 100 µM | NCI-H226 > 100 µM | SNB-75 > 100 µM | OVCAR-4 > 100 µM | TK-10 > 100 µM | SW-620 > 100 µM | SF-268 > 100 µM | ACHN > 100 µM | HCC 2998 > 100 µM | IGROV-1 > 100 µM | HT-29 > 100 µM | COLO 205 > 100 µM | SK-MEL-5 > 100 µM | OVCAR-3 > 100 µM

COc1ccc2c(c1OC)C(=O)C2
inactive: A549 > 100 µM | SF-295 > 100 µM | Malme-3M > 100 µM | NCI-H226 > 100 µM | SNB-75 > 100 µM | OVCAR-4 > 100 µM | TK-10 > 100 µM | SW-620 > 100 µM | SR > 100 µM | SF-268 > 100 µM | ACHN > 100 µM | HT-29 > 100 µM | COLO 205 > 100 µM | SK-MEL-5 > 100 µM

CCOC(=O)/N=C(\N)SCc1ccccc1
inactive: A549 > 100 µM | SF-295 > 100 µM | Malme-3M > 100 µM | NCI-H226 7.33 µM | SNB-75 > 100 µM | OVCAR-4 > 100 µM | TK-10 > 100 µM | SW-620 > 100 µM | SR 31.6 µM | SF-268 > 100 µM | ACHN > 100 µM | HCC 2998 > 100 µM | IGROV-1 > 100 µM | HT-29 > 100 µM | SK-MEL-5 > 100 µM

COc1ccc(/C=C2\CN(C)Cc3c2nc(N)nc3-c2ccc(OC)cc2)cc1
inactive: A549 48.4 µM | SF-295 > 100 µM | Malme-3M 34.4 µM | NCI-H226 > 100 µM | SNB-75 > 100 µM | TK-10 > 100 µM | SW-620 57.4 µM | SF-268 > 100 µM | ACHN > 100 µM | HCC 2998 16.6 µM | IGROV-1 > 100 µM | COLO 205 95.7 µM | SK-MEL-5 26.9 µM | OVCAR-3 > 100 µM

O=S(=O)(c1ccccc1)C1CN2OC1(S(=O)(=O)c1ccccc1)CC2c1ccc(Br)cc1 (configuration not stated)
inactive: A549 > 100 µM | SF-295 31.8 µM | Malme-3M > 100 µM | NCI-H226 > 100 µM | SNB-75 5.21 µM | OVCAR-4 15.4 µM | TK-10 59 µM | SW-620 > 100 µM | SF-268 14.9 µM | ACHN 45.4 µM | HCC 2998 > 100 µM | IGROV-1 > 100 µM | HT-29 > 100 µM | SK-MEL-5 90.6 µM | OVCAR-3 84.7 µM

Reference: ChEMBL document CHEMBL1201862, “PubChem BioAssay data set” (2004)
